Data taken from US5919761A, “Peptides for heparin and low molecular weight heparin anticoagulation reversal” (The Board of Regents of the University of Michigan, priority 1995, dated 1999).
Values joined by “and” are separate entries in the source; they are usually repeats but may differ in a detail not shown here. Identical values can stand only once. Peptide text beside a SMILES is read from it.

Tests used:
[1] = Percent change in platelet count after Enoxaparin reversal, canine study; type: in vivo; details: dogs, agent over 10 seconds
Experimental: (§1) Seven female dogs (mean weight 15-20 kg) received intravenous standard, unfractionated heparin (150 IU/kg IV) or LMWH (Enoxaparin, Rhone-Poulac, France; 100 IU/kg factor Xa activity) followed by reversal with commercial salmine protamine (n-protamine purchased from Eli Lilly, Indianapolis, Ind., 1.5 mg/kg (100 IU/mg) IV) or an anticoagulation-reversing agent which is a protamine-like peptide variant identified hereinbelow. In these studies, the anticoagulation-reversing agents were administered over a 10 second interval to maximize the hemodynamic effects.

[2] = Hemodynamic studies and total toxicity score after standard heparin reversal at different rates, dogs
Experimental: Hemodynamic studies were conducted by measuring mean arterial pressure (MAP) in mm Mercury, maximum percent changes in cardiac output (CO) and systemic oxygen consumption (VO2), and heart rate (HR) in beats per minute. Measurements and calculations were made at baseline, before LMWH administration, 3 minutes before reversal, every 30 seconds for 5 minutes after reversal.
(§2) TTS were developed that reflected maximum declines in each of four parameters (MAP, CO, VO2 and HR) over the first 5 minutes after reversal in the same manner as described hereinabove.

[3] = Hemodynamic studies and total toxicity score after LMWH reversal at different rates, canine study; details: dogs, Logiparin
Experimental: (§3) The anticoagulation-reversing agents were administered rapidly over 10 seconds to maximize hemodynamic effects or more slowly over a 3 minute interval. Changes in LMWH anticoagulation occurring from metabolism alone were determined in a separate group of dogs not given any reversal agent.
Hemodynamic studies were conducted by measuring mean arterial pressure (MAP) in mm Mercury, maximum percent changes in cardiac output (CO) and systemic oxygen consumption (VO2), and heart rate (HR) in beats per minute. Measurements and calculations were made at baseline, before LMWH administration, 3 minutes before reversal, every 30 seconds for 5 minutes after reversal, and at 10, 20, and 30 minutes after reversal.
as §2

standard heparin = test: Percent reversal of standard heparin anticoagulation by peptide [+18BE] administered at different rates, dogs; type: in vivo
[4] = Maximum hemodynamic changes and total toxicity score after standard heparin reversal, cell adhesion ligand analogs, canine study; details: dogs, agent over 10 seconds
Experimental: In these studies, the anticoagulation-reversing agents were administered over a 10 second interval to maximize the hemodynamic effects.
Hemodynamic studies were conducted by measuring mean blood pressure (Mean BP) in mm Mercury, maximum percent changes in cardiac output (CO) and systemic oxygen consumption (VO2), and heart rate (HR) in beats per minute. Measurements and calculations were made at baseline, before administration of standard, unfractionated heparin, 3 minutes before reversal, every 30 seconds for 5 minutes after reversal.
Total toxicity scores (TTS) were developed in accordance with the method described hereinabove that reflected maximum declines in each of four parameters (MAP, CO, VO2 and HR) over the first 5 minutes after reversal.

LMWH (Enoxaparin) = test: Factor Xa and IIa reversal after LMWH Enoxaparin, canine study; type: in vivo; details: dogs, 3 min
Experimental: Similar studies were conducted to assess the ability of the protamine-like peptide analogs described in this section to reverse the anticoagulation effects of the LMWH, Enoxaparin. FIG. 5a through FIG. 5d are graphical representations of LMWH anticoagulation activities achieved by n-protamine (Protamine [+21]), and compounds [+18BE], [+18KDEL], and [+18RGD] plotted as a percent of reversal against time in minutes. […] Referring to FIG. 5c, compound [+18RGD] dramatically outperforms n-protamine in reversing the heparin antifactor Xa activity of Enoxaparin.

[5] = Maximum hemodynamic changes and total toxicity score after Enoxaparin reversal, canine study; details: dogs, agent over 10 seconds
Experimental: as §1

[6] = test system: standard, unfractionated heparin; test: Factor Xa and IIa reversal after standard heparin, cell adhesion ligand analogs, canine study; type: in vivo; details: dogs, 3 min post administration
Experimental: Anticoagulation reversal was assessed by a number of standard coagulation tests performed upon samples of venous blood in the manner described hereinabove. Measurements were made 3 minutes prior to heparin reversal (baseline) and 3 minutes, 10 minutes, and 30 minutes post-administration of the heparin reversal agent. […] Referring to FIGS. 4a through 4d, compound [+18RGD] performs as well, or better, than n-protamine in the standard coagulation tests performed in these studies.

[7] = Platelet count, leukocyte count and bleeding time after LMWH reversal at different rates, canine study; type: in vivo, dogs
Experimental: as §3

LMWH (LHN-1, Logiparin) = test: Percent reversal of LMWH anticoagulation, agents administered at different rates, canine study; type: in vivo, dogs
Experimental: Anticoagulation reversal was assessed by a number of standard coagulation tests performed upon samples of venous blood in the manner described hereinabove. Measurements were made 3 minutes prior to heparin reversal (baseline) and 3 minutes, 10 minutes, and 30 minutes post-administration of the heparin reversal agent.

[8] = Percent change in platelet count after standard heparin reversal, cell adhesion ligand analogs, canine study; type: in vivo; details: dogs, agent over 10 seconds
Experimental: In addition to hemodynamic changes, Table 15 lists the percent change in platelet count following administration of n-protamine and the selected variants, as well as the factor Xa and factor IIa reversal, as a percent change at 3 minutes post administration of the compound.

[9] = administered over 10 sec, 3 min
[10] = administered over 10 sec, 10 min
[11] = administered over 10 sec, 30 min
[12] = administered over 3 min, 10 min
[13] = administered over 3 min, 30 min
[14] = dogs, Logiparin, administered over 10 sec
[15] = dogs, Logiparin, administered over 3 min

CC(=O)N[C@@H](CCC(=O)O)C(=O)N[C@@H](C)C(=O)N[C@@H](C)C(=O)N[C@@H](CCCCN)C(=O)N[C@@H](CCCCN)C(=O)N[C@@H](C)C(=O)N[C@@H](C)C(=O)N[C@@H](CCCCN)C(=O)N[C@@H](CCCCN)C(=O)N[C@@H](C)C(=O)N[C@@H](CCCCN)C(=O)N[C@@H](CCCCN)C(=O)N[C@@H](C)C(=O)N[C@@H](C)C(=O)N[C@@H](CCCCN)C(=O)N[C@@H](CCCCN)C(=O)N[C@@H](C)C(=O)N[C@@H](CCCCN)C(=O)N[C@@H](CCCCN)C(=O)N[C@@H](C)C(=O)N[C@@H](C)C(=O)N[C@@H](CCCCN)C(=O)N[C@@H](CCCCN)C(=O)N[C@@H](C)C(=O)N[C@@H](CCCCN)C(=O)N[C@@H](CCCCN)C(=O)N[C@@H](C)C(=O)N[C@@H](C)C(=O)N[C@@H](CCCCN)C(=O)N[C@@H](CCCCN)C(=O)N[C@@H](C)C(=O)N[C@@H](CCCCN)C(=O)N[C@@H](CCCCN)C(N)=O [[+18BE], acetyl-EA2 (K2 A2 K2 A)4 K2 amide] (Ac-EAAKKAAKKAKKAAKKAKKAAKKAKKAAKKAKK-NH2)
Platelet (percent change in platelet count) [1]: -35% | Total Toxicity Score ([2]; administered over 10 sec): -2.14 ± 0.40 | ΔCO ([2]; administered over 10 sec): -9% | ΔHR ([2]; administered over 10 sec): -8 beats per minute | ΔMAP ([2]; administered over 10 sec): -1 mm Mercury | ΔVO2 ([2]; administered over 10 sec): -9% | Total Toxicity Score ([2]; administered over 3 min): -1.96 ± 0.55 | ΔCO ([2]; administered over 3 min): -17% | ΔHR ([2]; administered over 3 min): -8 beats per minute | ΔMAP ([2]; administered over 3 min): 1 mm Mercury | ΔVO2 ([2]; administered over 3 min): -10% | Total Toxicity Score ([3]; administered over 10 sec): -2.3 ± 3.6 | ΔCO ([3]; administered over 10 sec): -11% | ΔHr ([3]; administered over 10 sec): -13 beats per minute | ΔMAP ([3]; administered over 10 sec): -8 mm Mercury | ΔVO2 ([3]; administered over 10 sec): -12% | Total Toxicity Score ([3]; administered over 3 min): -2.2 ± 1.7 | ΔCO ([3]; administered over 3 min): -7% | ΔHr ([3]; administered over 3 min): -5 beats per minute | ΔMAP ([3]; administered over 3 min): 0 mm Mercury | ΔVO2 ([3]; administered over 3 min): -10% | Percent reversal of standard heparin anticoagulation, FNa (standard heparin; [9]): 100% | Percent reversal of standard heparin anticoagulation, FXa (standard heparin; [9]): 99% | Percent reversal of standard heparin anticoagulation, TCT (standard heparin; [9]): 100% | Percent reversal of standard heparin anticoagulation, ACT (standard heparin; [10]): 98% | Percent reversal of standard heparin anticoagulation, FNa (standard heparin; [10]): 99% | Percent reversal of standard heparin anticoagulation, FXa (standard heparin; [10]): 95% | Percent reversal of standard heparin anticoagulation, TCT (standard heparin; [10]): 98% | Percent reversal of standard heparin anticoagulation, ACT (standard heparin; [11]): 96% | Percent reversal of standard heparin anticoagulation, FNa (standard heparin; [11]): 100% | Percent reversal of standard heparin anticoagulation, FXa (standard heparin; [11]): 97% | Percent reversal of standard heparin anticoagulation, TCT (standard heparin; [11]): 98% | Percent reversal of standard heparin anticoagulation, FNa (standard heparin; administered over 3 min, 3 min): 99% | Percent reversal of standard heparin anticoagulation, FXa (standard heparin; administered over 3 min, 3 min): 99% | Percent reversal of standard heparin anticoagulation, TCT (standard heparin; administered over 3 min, 3 min): 100% | Percent reversal of standard heparin anticoagulation, ACT (standard heparin; [12]): 98% | Percent reversal of standard heparin anticoagulation, FNa (standard heparin; [12]): 98% | Percent reversal of standard heparin anticoagulation, FXa (standard heparin; [12]): 97% | Percent reversal of standard heparin anticoagulation, TCT (standard heparin; [12]): 100% | Percent reversal of standard heparin anticoagulation, ACT (standard heparin; [13]): 98% | Percent reversal of standard heparin anticoagulation, FNa (standard heparin; [13]): 99% | Percent reversal of standard heparin anticoagulation, FXa (standard heparin; [13]): 96% | Percent reversal of standard heparin anticoagulation, TCT (standard heparin; [13]): 100% | Percent reversal of standard heparin anticoagulation, ACT (standard heparin; dogs (n=7), administered over 10 sec, 3 min post-administration): 95% | Percent reversal of standard heparin anticoagulation, ACT (standard heparin; dogs (n=7), administered over 3 min, 3 min post-administration): 98% | Maximum hemodynamic change, Mean BP ([4]; standard heparin 150 IU/kg IV, 5 minutes): -1 mm Mercury | Maximum hemodynamic change, CO ([4]; standard heparin, 5 minutes): -9% | Maximum hemodynamic change, HR ([4]; standard heparin, 5 minutes): -8 beats/min | Maximum hemodynamic change, VO2 ([4]; standard heparin, 5 minutes): -9% | Total Toxicity Score ([4]; standard unfractionated heparin): -2.41 ± 0.47 | IIa Reversal (LMWH (Enoxaparin)): 88% | Xa Reversal (LMWH (Enoxaparin)): 40% | Maximum hemodynamic change, Mean BP ([5]; Enoxaparin 100 IU/kg, 5 minutes): -1 mm Mercury | Total Toxicity Score (TTS) ([5]; Enoxaparin): -3.89 and -3.89 ± 2.37 | Maximum hemodynamic change, CO ([5]; Enoxaparin, 5 minutes): -5% | Maximum hemodynamic change, HR ([5]; Enoxaparin, 5 minutes): -4 beats/min | Maximum hemodynamic change, VO2 ([5]; Enoxaparin, 5 minutes): -6% | IIa Reversal [6]: 100% | Xa Reversal [6]: 99% | Maximal decline in leukocyte count [7, 14]: -1% | Maximal thrombocytopenia [7, 14]: -44% | Maximal decline in leukocyte count [7, 15]: -7% | Maximal thrombocytopenia [7, 15]: -49% | thrombocytopenia (platelet count change) ([7]; dogs, Logiparin, by 10 minutes, administered over a 3 minute interval): -8% | platelet count rebound ([7]; dogs, Logiparin, by 30 minutes, administered over a 3 minute interval): +35% | bleeding time ([7]; selected animals, given over a 3 minute interval): ≤ 8 min | Percent reversal of LMWH anticoagulation, FNa (LMWH (LHN-1, Logiparin); [9]): 99% | Percent reversal of LMWH anticoagulation, FXa (LMWH (LHN-1, Logiparin); [9]): 73% | Percent reversal of LMWH anticoagulation, TCT (LMWH (LHN-1, Logiparin); [9]): 100% | Percent reversal of LMWH anticoagulation, ACT (LMWH (LHN-1, Logiparin); [10]): 78% | Percent reversal of LMWH anticoagulation, FNa (LMWH (LHN-1, Logiparin); [10]): 83% | Percent reversal of LMWH anticoagulation, FXa (LMWH (LHN-1, Logiparin); [10]): 51% | Percent reversal of LMWH anticoagulation, TCT (LMWH (LHN-1, Logiparin); [10]): 95% | Percent reversal of LMWH anticoagulation, ACT (LMWH (LHN-1, Logiparin); [11]): 81% | Percent reversal of LMWH anticoagulation, FNa (LMWH (LHN-1, Logiparin); [11]): 79% | Percent reversal of LMWH anticoagulation, FXa (LMWH (LHN-1, Logiparin); [11]): 59% | Percent reversal of LMWH anticoagulation, TCT (LMWH (LHN-1, Logiparin); [11]): 95% | Percent reversal of LMWH anticoagulation, FNa (LMWH (LHN-1, Logiparin); administered over 3 min, 3 min): 94% | Percent reversal of LMWH anticoagulation, FXa (LMWH (LHN-1, Logiparin); administered over 3 min, 3 min): 91% | Percent reversal of LMWH anticoagulation, TCT (LMWH (LHN-1, Logiparin); administered over 3 min, 3 min): 100% | Percent reversal of LMWH anticoagulation, ACT (LMWH (LHN-1, Logiparin); [12]): 95% | Percent reversal of LMWH anticoagulation, FNa (LMWH (LHN-1, Logiparin); [12]): 99% | Percent reversal of LMWH anticoagulation, FXa (LMWH (LHN-1, Logiparin); [12]): 68% | Percent reversal of LMWH anticoagulation, TCT (LMWH (LHN-1, Logiparin); [12]): 100% | Percent reversal of LMWH anticoagulation, ACT (LMWH (LHN-1, Logiparin); [13]): 97% | Percent reversal of LMWH anticoagulation, FNa (LMWH (LHN-1, Logiparin); [13]): 84% | Percent reversal of LMWH anticoagulation, FXa (LMWH (LHN-1, Logiparin); [13]): 60% | Percent reversal of LMWH anticoagulation, TCT (LMWH (LHN-1, Logiparin); [13]): 99% | Percent reversal of LMWH anticoagulation, ACT (LMWH (LHN-1, Logiparin); dogs, Logiparin, agent administered over 10 sec, 3 min post-administration): 65% | Percent reversal of LMWH anticoagulation, ACT (LMWH (LHN-1, Logiparin); dogs, Logiparin, agent administered over 3 min, 3 min post-administration): 89% | Platelet (percent change in platelet count) [8]: -46%
